Experimental data published in US11077087B2, “Compositions comprising dihydroquercetin for use in methods for treating herpes” (BIONOOX SUISSE SA, priority 2015, dated 2021).

Columns and labels:
Type in all cases: cell-based
human mast cells = assay: Mast cell degranulation (IgE/anti-IgE), beta-hexosaminidase release
Text: Pure populations of human mast cells (HMC) are obtained by long-term culture of human normal hematopoietic progenitors (CD34^+ cells) in the continuous presence of Stem Cell Factor (SCF). Sources of these CD34^+ cells are mainly bone marrow, cord blood or peripheral blood. Usually, mononuclear cells from bone marrow and cord blood contain 0.5-1% of CD34^+ cells, whereas peripheral blood contains less than 0.1% of CD34^+ cells. Hematopoietic progenitor cells can be rapidly and efficiently enriched to a purity of about 85-98% using positive selection of magnetically labeled CD34^+ cells. Hematopoietic progenitor cells are then magnetically labeled using MACS CD34 MicroBeads. The magnetically labeled cells are enriched on positive selection columns in the magnetic field. Mononuclear cells from peripheral blood (PBMC), cord blood, or bone marrow may otherwise be obtained by density gradient centrifugation over Ficoll Paque®. Fractionation methods for producing mast cells are described in the art (see for instance Arock et al., 2008, Methods in Molecular biology 415: 241-254). Mast cell degranulation was induced by sequential treatment of mast cell by IgE, then by anti-IgE antibodies. Degranulation was subsequently measured by evaluating the release of beta-hexosaminidase, 1 h after IgE stimulation (see FIG. 4).

neutrophils [1] = assay: ROS production by neutrophils triggered by fMLP, luminol chemiluminescence; conditions: for Integral (total chemiluminescence counts, total ROS production): 22.21 min
Procedure: Neutrophils (5×10^5) are suspended in 0.5 mL of Hanks balanced salt solution containing 10 μM luminol at 37° C. The cells are then stimulated with 10^−6M fMLP (N-formylmethionyl-leucyl-phenylalanine). Chemiluminescence is recorded with a luminometer (Berthold-Biolumat LB937). Similarly, neutrophils were triggered by fMLP (10^−6 M) in the presence of different concentrations of DHQ (0, 1, 10 and 100 μM) at 37° C. in Hanks buffer containing 10 μM luminol and chemiluminescence was measured by a chemiluminometer. Total chemiluminescence counts during 22.21 min. (integrals) corresponding to total ROS production were determined.

[2] = tested on: polymorphonuclear neutrophils; assay: Oxygen consumption of polymorphonuclear neutrophils triggered by PMA and fMLP; conditions: data not shown
[3] = tested on: polymorphonuclear neutrophils; assay: Superoxide production by neutrophils, SOD-inhibitable ferricytochrome c reduction assay
Procedure: (§1) PMA (12-O-tetradecanoyl-phorbol-13-acetate, Consolidated Midland Corp., Brewster, N.Y.) is dissolved at 1 mg/ml in dimethyl sulfoxide. This stock solution maintains full biological activity for several months when stored at […] in the dark. Unless otherwise specified, polymorphonuclear neutrophils (PMN), 10^6/ml in BS-H, are put into plastic centrifuge tubes (Falcon No. 2070, Falcon Labware, Div. of Becton, Dickinson & Co., Oxnard, Calif.) and brought to 37° C. PMA stock solution is added to provide a final concentration of 100 ng/ml of PMA. “Resting” (control) cells are exposed to […] dimethyl sulfoxide. A chemiluminescence (using luminol) method is used to measure Reactive Oxygen species (ROS) production (Dang et al, J Clin Invest. 2006, 116(7):2033-43; Boussetta et al, Blood. 2010, 116(26):5795-802). Superoxide production is measured by the superoxide dismutase (SOD)-inhibitable ferricytochrome c reduction assay.
When activated by opsonized bacteria, zymozan, fMLP (Formyl-Methionyl-Leucyl-Phenylalanine) or PMA (phorbol myristate acetate), neutrophils undergo an oxidative burst resulting in the production of superoxide anion and subsequent hydrogen peroxide. The oxidative burst is mainly mediated by the NADPH oxidase activation, enzyme responsible of the superoxide anion production. […] This effect results either from the direct anion superoxide scavenging or from the inhibition of NADPH oxidase activation.

NIH-3T3 fibroblasts = assay: NIH-3T3 fibroblast proliferation, MTT assay; conditions: increasing DHQ concentrations
Procedure: The NIH 3T3 cell line was purchased from the ATCC (CRL1658). Cell lines are grown in Dulbecco's Modified Eagles' Medium (DMEM) supplemented with 10% heat inactivated newborn calf serum, 100 UI/mL penicillin and 100 μg/mL streptomycin (all from Gibco BRL) at 37° C. in a humidified 5% CO2 atmosphere. DHQ is dissolved in DMSO. Cells are cultured during 48 hours in the absence or in the presence of various DHQ concentrations. NIH-3T3 fibroblasts are immortalized cells which mimic the inflammatory phenotype assessed by the abundance of actin stress fibers and high contractility.
The effects of DHQ on the growth of NIH-3T3 cells are determined using the 3-(4,5-dimetthylthiazol-2-yl)-2,5-diphenyltetrazolium bromide (MTT) assay. Briefly, cells are plated on 96 well plates at 4,000 cells per well with increasing DHQ concentrations. After 72 hours of incubation with the drug, medium is removed and replaced by complete medium+MTT (10% v/v). After 3 hours of incubation, formazan crystals are dissolved in buffer containing 10% SDS (w/v, Bio-Rad), 50% Dimethyl formamide (Sigma), pH 4.7. Absorbance of reduced formazan is measured at 580 nm. Results are presented in FIG. 5: 100% of MTT reduced is attributed to the measure performed in absence of DHQ.

neutrophils [4] = assay: ROS production by neutrophils triggered by PMA, luminol chemiluminescence; conditions: for Integral (total chemiluminescence counts, total ROS production) / Peak max / Slope max / T. Slope max / T. half (rise) / T. max (peak): PMA 100 ng/mL; for Integral (total chemiluminescence counts, total ROS production): 22.21 min
Procedure: as §1
Neutrophils are triggered by PMA (100 ng/mL) in the presence of different concentrations of DHQ (0, 1, 10 and 100 μM) at 37° C. in Hanks buffer containing 10 μM luminol and chemiluminescence is measured by a chemiluminometer. Total chemiluminescence counts during 22.21 min. (integrals) corresponding to total ROS production are determined.

[5] = fMLP 10^−6 M, DHQ 1 μM (inferred)
[6] = fMLP 10^−6 M, DHQ 10 μM (inferred)
[7] = fMLP 10^−6 M, DHQ 100 μM (inferred)

SMILES: O=C1c2c(O)cc(O)cc2OC(c2ccc(O)c(O)c2)C1O (stereo not shown) [DHQ]
- inhibition at 10 µM (human mast cells; Homo sapiens, Mast cell, DHQ 10 μM, beta-hexosaminidase release 1 h after IgE stimulation): ≤ 50%
- inhibition at 100 µM (human mast cells; Homo sapiens, Mast cell, DHQ 100 μM, beta-hexosaminidase release 1 h after IgE stimulation): 80%
- inhibitory activity on degranulation compared with reference molecules (human mast cells; versus kinase inhibitors and chromoglycate): superior to kinase inhibitors and chromoglycate
- inhibition at 1 µM (neutrophils [1]; Neutrophil, neutrophils activated by fMLP, DHQ 1 μM): ~80%
- Integral (total chemiluminescence counts, total ROS production) (neutrophils [1]; fMLP 10^−6 M, DHQ 1 μM (line not labelled, concentration inferred)): 3.838E+08
- Integral (total chemiluminescence counts, total ROS production) (neutrophils [1]; fMLP 10^−6 M, DHQ 10 μM (line not labelled, concentration inferred)): 1.867E+08
- Integral (total chemiluminescence counts, total ROS production) (neutrophils [1]; fMLP 10^−6 M, DHQ 100 μM (line not labelled, concentration inferred)): 4.329E+07
- Peak max (neutrophils [1]; [5]): 3.731E+07 cpm
- Slope max (neutrophils [1]; [5]): 2.492E+07 cpm
- T. Slope max (neutrophils [1]; [5]): 0.22
- T. half (fall) (neutrophils [1]; [5]): 3.78
- T. max (peak) (neutrophils [1]; [5]): 1.33
- Peak max (neutrophils [1]; [6]): 1.770E+07 cpm
- Slope max (neutrophils [1]; [6]): 1.206E+07 cpm
- T. Slope max (neutrophils [1]; [6]): 0.22
- T. half (fall) (neutrophils [1]; [6]): 3.55
- T. max (peak) (neutrophils [1]; [6]): 1.33
- Peak max (neutrophils [1]; [7]): 2.533E+06 cpm
- Slope max (neutrophils [1]; [7]): 1.464E+06 cpm
- T. Slope max (neutrophils [1]; [7]): 2.00
- T. half (rise) (neutrophils [1]; [7]): 1.55
- T. max (peak) (neutrophils [1]; [7]): 6.00
- oxygen consumption of polymorphonuclear neutrophils [2]: strongly inhibits
- cytochrome c reduction (anion superoxide production) ([3]; +PMA, DHQ 1 μM): 0.110 dDO/min
- cytochrome c reduction (anion superoxide production) ([3]; +PMA, DHQ 10 μM): 0.070 dDO/min
- cytochrome c reduction (anion superoxide production) ([3]; +PMA, DHQ 100 μM): 0.021 dDO/min
- cytochrome c reduction (anion superoxide production) ([3]; +fMLP, DHQ 1 μM): 0.144 dDO/min
- cytochrome c reduction (anion superoxide production) ([3]; +fMLP, DHQ 10 μM): 0.105 dDO/min
- cytochrome c reduction (anion superoxide production) ([3]; +fMLP, DHQ 100 μM): 0.040 dDO/min
- cytochrome c reduction (anion superoxide production) ([3]; resting neutrophils, DHQ 1 μM): 0.000 dDO/min
- cytochrome c reduction (anion superoxide production) ([3]; resting neutrophils, DHQ 10 μM): 0.036 dDO/min
- cytochrome c reduction (anion superoxide production) ([3]; resting neutrophils, DHQ 100 μM): 0.086 dDO/min
- cell viability of NIH-3T3 cells (extent of MTT reduced) (NIH-3T3 fibroblasts): reduced
- inhibition at 1 µM (neutrophils [4]; Neutrophil, neutrophils activated by PMA, DHQ 1 μM): ~80%
- Integral (total chemiluminescence counts, total ROS production) (neutrophils [4]; DHQ 1 μM (line not labelled, concentration inferred)): 4.509E+08
- Integral (total chemiluminescence counts, total ROS production) (neutrophils [4]; DHQ 10 μM (line not labelled, concentration inferred)): 2.0172E+08
- Integral (total chemiluminescence counts, total ROS production) (neutrophils [4]; DHQ 100 μM (line not labelled, concentration inferred)): 3.576E+07
- Peak max (neutrophils [4]; DHQ 1 μM (inferred)): 2.430E+07 cpm
- Slope max (neutrophils [4]; DHQ 1 μM (inferred)): 9.790E+06 cpm
- T. Slope max (neutrophils [4]; DHQ 1 μM (inferred)): 1.78
- T. half (rise) (neutrophils [4]; DHQ 1 μM (inferred)): 2.44
- T. max (peak) (neutrophils [4]; DHQ 1 μM (inferred)): 11.77
- Peak max (neutrophils [4]; DHQ 10 μM (inferred)): 1.134E+07 cpm
- Slope max (neutrophils [4]; DHQ 10 μM (inferred)): 4.380E+06 cpm
- T. Slope max (neutrophils [4]; DHQ 10 μM (inferred)): 1.55
- T. half (rise) (neutrophils [4]; DHQ 10 μM (inferred)): 2.22
- T. max (peak) (neutrophils [4]; DHQ 10 μM (inferred)): 9.55
- Peak max (neutrophils [4]; DHQ 100 μM (inferred)): 2.260E+06 cpm
- Slope max (neutrophils [4]; DHQ 100 μM (inferred)): 1.033E+06 cpm
- T. Slope max (neutrophils [4]; DHQ 100 μM (inferred)): 4.66
- T. half (rise) (neutrophils [4]; DHQ 100 μM (inferred)): 4.89
- T. max (peak) (neutrophils [4]; DHQ 100 μM (inferred)): 11.55
